The test system of assay [1] is rat model of chronic kidney disease. As to conditions: cited from earlier work; for plasma aldosterone: FAD286: 4 weeks of treatment, spironolactone: 4 and 8 weeks of treatment; for angiotensin II and salt-stimulated PAI-1 mRNA expression: aorta and heart; for renal effects of angiotensin II and high salt (albuminuria, azotemia, renovascular hypertrophy, glomerular injury, PAI-1, osteopontin mRNA, tubulointerstitial fibrosis): rat, in vivo.

The next assay concerns the target human CYP11B1 (Homo sapiens (Human), UniProt P15538). As to the kind of experiment: G-402 cellular enzyme assay, human CYP11B1 (cortisol release). The assay is classed as cell-based. As to conditions: G-402 cells, 1 μM Deoxycortisol. The text has this: (§1) Herein we identified the use of the G-402 cell line as a host cell to ectopically express (transiently or stably) enzymes of the CYP11 family. Specifically we developed stable G-402 cells expressing ectopically human CYP11B1, human CYP11B2, human CYP11A1, cynmolgus CYP11B1 or cynomolgus CYP11B2 enzyme activity. Importantly the identified cell line G-402 expresses co-factors (adrenodoxin and adrenodoxin reductase) important for the activity of the CYP11 family and no relevant enzyme activity of the CYP11 family (in comparison to H295R cells) was detected in these cells. Therefore the G-402 cell line is uniquely suited as a host cell for the ectopic expression of enzymes from the CYP11 family. G-402 cells can be obtained from ATCC (CRL-1440) and were originally derived from a renal leiomyoblastoma.
(§2) The expression plasmids contains the ORF for either human/cyno CYP11B1 or CYP11B2 under the control of a suitable promoter (CMV-promoter) and a suitable resistance marker (neomycin). Using standard techniques the expression plasmid is transfected into G-402 cells and these cells are then selected for expressing the given resistance markers. Individual cell-clones are then selected and assessed for displaying the desired enzymatic activity using 11-Deoxycorticosterone (Cyp11B2) or 11-Deoxycortisol (Cyp11B1) as a substrate.
(§3) G-402 cells expressing CYP11 constructs were established as described above and maintained in McCoy's 5a Medium Modified, ATCC Catalog No. 30-2007 containing 10% FCS and 400 μg/ml G418 (Geneticin) at 37° C. under an atmosphere of 5% CO2/95% air. Cellular enzyme assays were performed in DMEM/F12 medium containing 2.5% charcoal treated FCS and appropriate concentration of substrate (0.3-10 uM 11-Deoxycorticosterone, 11-Deoxycortisol or Corticosterone). For assaying enzymatic activity, cells were plated onto 96 well plates and incubated for 16 h. An aliquot of the supernatant is then transferred and analyzed for the concentration of the expected product (Aldosterone for CYP11B2; Cortisol for CYP11B1). The concentrations of these steroids can be determined using HTRF assays from CisBio analyzing either Aldosterone or Cortisol.
(§4) Inhibition of the release of produced steroids can be used as a measure of the respective enzyme inhibition by test compounds added during the cellular enzyme assay. The dose dependent inhibition of enzymatic activity by a compound is calculated by means of plotting added inhibitor concentrations (x-axes) vs. measured steroid/product level (y-axes). The inhibition is then calculated by fitting the following 4-parameter sigmoidal function (Morgan-Mercer-Flodin (MMF) model) to the raw data points using the least squares method:
(§5) [formula] wherein, A is the maximum y value, B is the EC50 factor determined using XLFit, C is the minimum y value and D is the slope value.
(§6) EC50 values for compounds claimed herein were tested with the G402-based assay system described. Cyp11B2 enzyme activity was tested in presence of 1 μM Deoxycorticosterone and variable amounts of inhibitors; Cyp11B1 enzyme activity was tested in presence of 1 μM Deoxycortisol and variable amounts of inhibitors.

Another assay deals with human CYP11B2 (Homo sapiens (Human), UniProt P19099). In words: G-402 cellular enzyme assay, human CYP11B2 (aldosterone release). As to conditions: G-402 cells, 1 μM Deoxycorticosterone. The assay is classed as cell-based.
Text: as §1, §2, §3, §4, §5, §6

The subject of assay [2] is patients with primary aldosteronism. The settings on record: oral; cited from earlier work.
Assay [3] has as its system rats with experimental heart failure. The settings on record: rat, in vivo; cited from earlier work.

Chain of human CYP11B1 (P15538 25-503): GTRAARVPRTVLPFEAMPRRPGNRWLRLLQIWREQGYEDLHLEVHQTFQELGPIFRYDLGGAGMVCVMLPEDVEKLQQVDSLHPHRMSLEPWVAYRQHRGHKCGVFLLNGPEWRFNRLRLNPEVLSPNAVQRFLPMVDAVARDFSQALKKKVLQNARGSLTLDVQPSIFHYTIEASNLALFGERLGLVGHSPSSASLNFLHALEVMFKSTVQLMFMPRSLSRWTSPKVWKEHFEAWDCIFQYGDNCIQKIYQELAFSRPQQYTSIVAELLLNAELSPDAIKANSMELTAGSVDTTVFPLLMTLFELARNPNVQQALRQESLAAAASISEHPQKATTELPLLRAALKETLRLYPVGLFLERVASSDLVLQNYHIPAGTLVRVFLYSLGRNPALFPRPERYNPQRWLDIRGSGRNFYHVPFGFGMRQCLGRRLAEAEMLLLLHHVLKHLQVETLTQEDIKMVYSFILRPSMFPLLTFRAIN
Chain of human CYP11B2 (P19099 25-503): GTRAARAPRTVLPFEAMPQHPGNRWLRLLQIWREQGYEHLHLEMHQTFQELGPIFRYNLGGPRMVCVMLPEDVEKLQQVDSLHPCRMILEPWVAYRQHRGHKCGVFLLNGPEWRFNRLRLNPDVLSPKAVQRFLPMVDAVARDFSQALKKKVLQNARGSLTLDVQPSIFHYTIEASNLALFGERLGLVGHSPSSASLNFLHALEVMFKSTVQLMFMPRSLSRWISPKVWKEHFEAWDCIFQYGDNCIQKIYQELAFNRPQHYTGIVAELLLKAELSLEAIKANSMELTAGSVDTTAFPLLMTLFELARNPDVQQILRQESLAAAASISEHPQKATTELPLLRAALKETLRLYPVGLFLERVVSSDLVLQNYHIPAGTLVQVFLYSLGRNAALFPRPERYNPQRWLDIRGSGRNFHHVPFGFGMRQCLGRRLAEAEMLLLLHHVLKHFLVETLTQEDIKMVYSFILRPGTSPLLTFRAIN

On to `CC(=O)S[C@@H]1CC2=CC(=O)CC[C@]2(C)[C@H]2CC[C@@]3(C)[C@@H](CC[C@@]34CCC(=O)O4)[C@H]12` [spironolactone], for which, in assay [1], the plasma aldosterone result is “increased”; the “angiotensin II and salt-stimulated PAI-1 mRNA expression” value was “enhanced”; the “renal effects of angiotensin II and high salt (albuminuria, azotemia, renovascular hypertrophy, glomerular injury, PAI-1, osteopontin mRNA, tubulointerstitial fibrosis)” value was “prevented”.

A word on the EC50: it is the concentration giving half of the maximal effect. Turning to `CN(C)C(=O)CC1CCc2c(-c3ccc(C(F)(F)F)cc3F)cncc21` (racemic) [Example 13, (rac)-2-[4-[2-Fluoro-4-(trifluoromethyl)phenyl]-6,7-dihydro-5H-cyclopenta[c]pyridin-7-yl]-N,N-dimethyl-acetamide], the EC50 at human CYP11B1 is 9370 nM; at human CYP11B2, 67 nM.

With `COC1CN(C(=O)CC2CCc3c(-c4ccc(C(F)(F)F)cc4F)cncc32)C1` (racemic) [Example 20, (rac)-2-[4-[2-Fluoro-4-(trifluoromethyl)phenyl]-6,7-dihydro-5H-cyclopenta[c]pyridin-7-yl]-1-(3-methoxyazetidin-1-yl)ethanone], the figures for the EC50 on human CYP11B1 and at human CYP11B2 were 1490 nM and 53 nM, respectively.

As to `CNC(=O)CC1CCc2c(-c3ccc(C(F)(F)F)c(F)c3)cncc21` (racemic) [Example 2, (rac)-2-[4-[3-Fluoro-4-(trifluoromethyl)phenyl]-6,7-dihydro-5H-cyclopenta[c]pyridin-7-yl]-N-methyl-acetamide], the EC50 amounted to 199 nM at human CYP11B1 and 17 nM at human CYP11B2.

With `O=C(CC1CCc2c(-c3ccc(C(F)(F)F)c(F)c3)cncc21)N1CCCCC1` (racemic) [Example 8, (rac)-2-[4-[3-Fluoro-4-(trifluoromethyl)phenyl]-6,7-dihydro-5H-cyclopenta[c]pyridin-7-yl]-1-(1-piperidyl)ethanone], the values for the EC50 at human CYP11B1 and on human CYP11B2 were 10 nM and 2 nM, respectively.

In the case of `O=C(CC1CCCc2c(-c3ccc(C(F)(F)F)cc3F)cncc21)NCC1CC1` (racemic) [Example 31, (rac)-N-(Cyclopropylmethyl)-2-[4-[2-fluoro-4-(trifluoromethyl)phenyl]-5,6,7,8-tetrahydroisoquinolin-8-yl]acetamide], the EC50 on human CYP11B1 worked out at 1780 nM; at human CYP11B2, 71 nM.

On to `O=C(CC1CCc2c(-c3ccc(C(F)(F)F)c(F)c3)cncc21)Nc1cc[nH]n1` (racemic) [Example 11, (rac)-2-[4-[3-Fluoro-4-(trifluoromethyl)phenyl]-6,7-dihydro-5H-cyclopenta[c]pyridin-7-yl]-N-(1H-pyrazol-3-yl)acetamide], for which the EC50 was 30 nM at human CYP11B1 and 8 nM at human CYP11B2.

For the molecule `N#Cc1ccc([C@H]2CCc3cncn32)c(F)c1` [LCI699], in assay [2], the blood pressure result is on record as “mildly decreased”, the circulating aldosterone levels entry is “significantly lower” and the hypokalemia result is recorded as “corrected”.

For `CCOC(=O)CC1CCCc2c(-c3ccc(C(F)(F)F)cc3F)cncc21` (racemic) [Example 23, (rac)-Ethyl 2-[4-[2-fluoro-4-(trifluoromethyl)phenyl]-5,6,7,8-tetrahydroisoquinolin-8-yl]acetate], the figures for the EC50 at human CYP11B1 and on human CYP11B2 were 1890 nM and 27 nM, respectively.

In the case of `N#Cc1ccc([C@H]2CCCc3cncn32)cc1` [FAD286], in assay [3], the “blood pressure and cardiovascular function and structure” value is given as “improved”; the “kidney function and morphology” value is “improve”. Also, in assay [1], the plasma aldosterone result was “reduced”; the “angiotensin II and salt-stimulated PAI-1 mRNA expression” value is recorded as “not”; the “renal effects of angiotensin II and high salt (albuminuria, azotemia, renovascular hypertrophy, glomerular injury, PAI-1, osteopontin mRNA, tubulointerstitial fibrosis)” value is reported as “prevented”.

Regarding `OCCC1CCCc2c(-c3ccc(C(F)(F)F)cc3F)cncc21` (racemic) [Example 24, (rac)-2-[4-[2-Fluoro-4-(trifluoromethyl)phenyl]-5,6,7,8-tetrahydroisoquinolin-8-yl]ethanol], the values for the EC50 at human CYP11B1 and on human CYP11B2 were 85 nM and 5 nM, respectively.

As to `CN(C)C(=O)CC1CCCc2c(-c3ccc(C(F)(F)F)cc3F)cncc21` (racemic) [Example 26, (rac)-2-[4-[2-Fluoro-4-(trifluoromethyl)phenyl]-5,6,7,8-tetrahydroisoquinolin-8-yl]-N,N-dimethyl-acetamide], the EC50 was determined as 3080 nM at human CYP11B1 and 32 nM at human CYP11B2.

The values above are taken from patent US9636339B2, “Phenyl-dihydropyridine derivatives as aldosterone synthase inhibitors” (Hoffmann-La Roche Inc., priority 2013, dated 2017).
